The numbers were not newly measured in US20130004563A1, “MULTIP[…]-ADENOSYLMETHIONINE COMPOSITIONS AND RELATED METHODS” (priority 2011, published 2013), which cites them from elsewhere.

Assay in data set [1]: not given
The source holds these as a separate data set.

Take S-adenosyl-L-methionine [SAMe]: where the note is “enteric-coated single unit tablets, compared with immediate release formulations”, the SAMe bioavailability entry was “higher”. In addition, the half-life entry (in the body, single dose) is recorded as “approximately 6 hours”. For the same substance, the stability in vitro entry in data set [1] was “relatively unstable”.
